According to ChEMBL document CHEMBL1201862, “PubChem BioAssay data set” (2004):
Calls of active or inactive are those of the source.

What was measured:
[1] = biological target: Serine/threonine-protein phosphatase PP1-alpha catalytic subunit (Homo sapiens, UniProt P62136); assay: PP1 phosphatase inhibitors, dose response, biochemical, fluorescence (AID 2403);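 further: phosphatase turnover of OMFP into fluorescent 3-O-methylfluorescein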
[2] = biological target: T1, Serine/threonine-protein phosphatase (Homo sapiens, UniProt Q9BPW0); assay: Counterscreen for inhibitors of PP1: fluorescence-based biochemical high throughput dose response assay to identify inhibitors of Protein Phosphatase 5 (PP5). [Related pubchem assays: 2034 (Summary (PP5 inhibitors)), 1987 (PP5 inhibitors in singlate), 2235 (PP1 inhibitors in singlate)]
T1 sequence (Q9BPW0 whole entry): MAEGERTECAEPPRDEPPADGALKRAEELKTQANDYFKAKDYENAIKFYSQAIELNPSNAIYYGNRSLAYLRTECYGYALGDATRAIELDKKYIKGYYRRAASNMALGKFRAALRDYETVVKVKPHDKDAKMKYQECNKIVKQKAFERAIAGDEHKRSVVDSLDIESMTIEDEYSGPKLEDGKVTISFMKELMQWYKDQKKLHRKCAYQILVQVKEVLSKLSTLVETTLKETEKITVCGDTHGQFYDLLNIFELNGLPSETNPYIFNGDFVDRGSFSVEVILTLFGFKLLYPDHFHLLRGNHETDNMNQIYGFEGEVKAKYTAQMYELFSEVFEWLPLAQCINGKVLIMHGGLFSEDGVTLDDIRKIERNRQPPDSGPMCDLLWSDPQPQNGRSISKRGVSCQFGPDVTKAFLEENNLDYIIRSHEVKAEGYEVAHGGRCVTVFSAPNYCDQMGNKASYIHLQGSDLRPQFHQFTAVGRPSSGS

[3] = test system: INS1; assay: beta cell apoptosis inhibitors, cytokine rescue, dose response, luminescence, retest (AID 449756); format: functional, cell-based; conditions: Rattus norvegicus;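 further: cell death triggered by IL-1 beta plus TNF-alpha plus IFN-gamma mixture; protective hits raise ATP signal compared with cytokine alone wells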
[4] = biological target: T2, Leucine aminopeptidase (Plasmodium falciparum 3D7, UniProt Q8IL11); assay: P. falciparum M17LAP inhibitors, primary screen, biochemical, fluorogenic H-Leu-NHMec substrate, 1536-well (AID 1619); format: functional
T2 sequence (Q8IL11 whole entry): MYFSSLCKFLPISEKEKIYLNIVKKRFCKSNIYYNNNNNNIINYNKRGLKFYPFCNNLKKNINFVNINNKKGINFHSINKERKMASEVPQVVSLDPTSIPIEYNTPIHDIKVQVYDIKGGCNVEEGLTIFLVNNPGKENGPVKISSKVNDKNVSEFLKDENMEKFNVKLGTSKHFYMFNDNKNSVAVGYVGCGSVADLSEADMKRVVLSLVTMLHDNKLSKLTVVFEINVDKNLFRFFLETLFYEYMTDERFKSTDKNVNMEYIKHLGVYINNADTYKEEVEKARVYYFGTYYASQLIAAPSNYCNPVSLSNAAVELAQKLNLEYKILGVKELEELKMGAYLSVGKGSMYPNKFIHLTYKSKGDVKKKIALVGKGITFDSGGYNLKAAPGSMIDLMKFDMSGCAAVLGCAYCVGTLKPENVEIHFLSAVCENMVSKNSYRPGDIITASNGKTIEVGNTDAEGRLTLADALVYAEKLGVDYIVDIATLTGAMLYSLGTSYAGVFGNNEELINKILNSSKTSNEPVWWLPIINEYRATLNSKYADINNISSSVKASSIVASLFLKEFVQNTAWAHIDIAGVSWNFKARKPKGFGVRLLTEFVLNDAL

[5] = biological target: Beta-galactosidase (Escherichia coli, UniProt Q8VNN2); assay: PubChem AID 485352; format: functional
Sequence of Beta-galactosidase (Q8VNN2 whole entry): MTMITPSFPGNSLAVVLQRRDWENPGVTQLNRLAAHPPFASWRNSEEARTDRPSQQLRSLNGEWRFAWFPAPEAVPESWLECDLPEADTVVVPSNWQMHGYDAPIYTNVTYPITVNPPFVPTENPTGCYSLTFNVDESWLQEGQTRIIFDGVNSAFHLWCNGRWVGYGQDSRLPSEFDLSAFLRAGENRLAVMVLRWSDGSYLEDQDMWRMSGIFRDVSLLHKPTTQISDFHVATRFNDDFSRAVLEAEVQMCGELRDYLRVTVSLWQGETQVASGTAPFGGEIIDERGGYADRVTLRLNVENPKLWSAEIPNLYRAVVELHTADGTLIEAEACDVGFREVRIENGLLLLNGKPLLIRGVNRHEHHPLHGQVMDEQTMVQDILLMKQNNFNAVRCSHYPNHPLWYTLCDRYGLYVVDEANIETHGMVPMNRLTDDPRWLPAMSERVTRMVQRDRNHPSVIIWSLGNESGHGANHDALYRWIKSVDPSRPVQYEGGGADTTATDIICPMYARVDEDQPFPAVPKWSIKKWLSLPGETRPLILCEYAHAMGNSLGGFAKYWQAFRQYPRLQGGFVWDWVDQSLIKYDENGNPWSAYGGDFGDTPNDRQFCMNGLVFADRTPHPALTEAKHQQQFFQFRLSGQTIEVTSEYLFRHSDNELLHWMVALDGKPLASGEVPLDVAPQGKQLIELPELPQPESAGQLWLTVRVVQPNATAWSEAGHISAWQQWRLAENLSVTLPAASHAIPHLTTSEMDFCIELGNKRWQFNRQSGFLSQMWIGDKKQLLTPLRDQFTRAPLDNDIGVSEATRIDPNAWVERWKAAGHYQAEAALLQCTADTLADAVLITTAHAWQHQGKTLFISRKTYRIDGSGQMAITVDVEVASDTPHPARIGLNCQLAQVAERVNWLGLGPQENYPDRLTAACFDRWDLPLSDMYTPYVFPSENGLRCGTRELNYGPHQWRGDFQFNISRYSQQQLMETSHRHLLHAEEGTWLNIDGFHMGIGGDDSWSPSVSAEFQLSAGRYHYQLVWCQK

[6] = biological target: T3, Type-1 angiotensin II receptor (Homo sapiens, UniProt P30556); assay: AT1 receptor antagonists, dose response, selectivity assay for APJ receptor antagonist project, cell-based, uHTS hits (AID 463214); format: functional;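 further: antagonist potency against angiotensin II stimulated AT1 response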
T3 sequence (P30556 whole entry): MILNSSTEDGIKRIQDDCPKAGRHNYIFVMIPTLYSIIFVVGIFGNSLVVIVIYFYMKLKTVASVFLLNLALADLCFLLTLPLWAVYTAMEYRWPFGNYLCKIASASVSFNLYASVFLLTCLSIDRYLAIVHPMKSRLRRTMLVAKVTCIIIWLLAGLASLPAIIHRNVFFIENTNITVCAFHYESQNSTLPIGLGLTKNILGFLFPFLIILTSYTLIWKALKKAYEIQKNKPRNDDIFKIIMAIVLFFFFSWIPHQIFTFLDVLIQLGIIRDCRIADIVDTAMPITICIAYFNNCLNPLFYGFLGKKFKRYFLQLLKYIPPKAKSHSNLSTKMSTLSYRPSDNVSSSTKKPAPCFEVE

[7] = enhancers of respiration in Yfh1-depleted yeast, dose response, Friedreich's ataxia, plus single-dose screen (AID 1465); format: functional;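 further: yeast depleted of Yfh1p frataxin homolog grown on glycerol needing respiration; WST-1 tetrazolium dye reduction as measure of cellular dehydrogenase metabolic activity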
[8] = Counterscreen for IDE inhibitors: Luminescence-based cell-based high throughput dose response assay to identify compounds that are cytotoxic to HEK cells. [Related pubchem assays: 434962 (Primary screen (IDE inhibitors in singlicate)), 449730 (Counterscreen (Cytotoxicity in triplicate)), 435028 (Confirmation (IDE inhibitors in triplicate)) …; format: functional; conditions: HEK293
[9] = biological target: T4, Insulin-degrading enzyme (Homo sapiens, UniProt P14735); assay: Dose Response: Fluorescence polarization-based cell-based high throughput dose response assay for inhibitors of insulin-degrading enzyme (IDE). [Related pubchem assays: 434962 (Primary screen (IDE inhibitors in singlicate)), 449730 (Counterscreen (Cytotoxicity in triplicate)), 435028 (Confirmation (IDE inhibitors in triplicate)), 434984 (Summary …; format: functional
T4 sequence (P14735 whole entry): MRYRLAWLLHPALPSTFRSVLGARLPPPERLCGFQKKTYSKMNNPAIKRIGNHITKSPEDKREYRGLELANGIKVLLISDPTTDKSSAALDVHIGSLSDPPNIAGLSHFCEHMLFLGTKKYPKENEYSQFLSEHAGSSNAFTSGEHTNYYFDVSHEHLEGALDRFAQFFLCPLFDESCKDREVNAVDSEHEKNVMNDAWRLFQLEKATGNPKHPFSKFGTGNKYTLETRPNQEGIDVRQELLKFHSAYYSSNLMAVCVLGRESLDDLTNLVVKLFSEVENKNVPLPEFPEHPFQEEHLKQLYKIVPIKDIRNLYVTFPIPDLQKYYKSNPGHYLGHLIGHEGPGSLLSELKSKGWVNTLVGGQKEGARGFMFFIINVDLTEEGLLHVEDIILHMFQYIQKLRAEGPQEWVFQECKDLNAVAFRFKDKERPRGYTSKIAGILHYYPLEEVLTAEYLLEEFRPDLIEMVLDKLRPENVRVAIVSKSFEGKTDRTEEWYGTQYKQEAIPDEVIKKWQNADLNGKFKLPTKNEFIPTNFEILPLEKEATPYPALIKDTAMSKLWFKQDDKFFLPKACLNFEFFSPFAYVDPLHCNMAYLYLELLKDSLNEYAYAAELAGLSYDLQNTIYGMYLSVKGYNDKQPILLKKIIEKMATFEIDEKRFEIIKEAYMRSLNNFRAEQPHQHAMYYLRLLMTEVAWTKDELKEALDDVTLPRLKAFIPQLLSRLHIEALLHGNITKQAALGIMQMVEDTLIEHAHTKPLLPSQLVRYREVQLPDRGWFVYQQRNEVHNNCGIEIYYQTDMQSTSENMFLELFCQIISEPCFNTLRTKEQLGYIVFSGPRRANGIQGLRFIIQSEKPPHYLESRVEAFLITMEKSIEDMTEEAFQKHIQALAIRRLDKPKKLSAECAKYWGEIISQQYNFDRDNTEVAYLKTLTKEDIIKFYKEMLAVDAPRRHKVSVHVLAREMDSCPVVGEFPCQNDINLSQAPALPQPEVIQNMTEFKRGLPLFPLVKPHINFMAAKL

[10] = A Cell Based Secondary Assay To Explore Cytotoxicity of Compounds that Sensitize Mycobacterium Tuberculosis to Beta-Lactam Antibiotics.; format: functional

Sequence of Serine/threonine-protein phosphatase PP1-alpha catalytic subunit (P62136 whole entry): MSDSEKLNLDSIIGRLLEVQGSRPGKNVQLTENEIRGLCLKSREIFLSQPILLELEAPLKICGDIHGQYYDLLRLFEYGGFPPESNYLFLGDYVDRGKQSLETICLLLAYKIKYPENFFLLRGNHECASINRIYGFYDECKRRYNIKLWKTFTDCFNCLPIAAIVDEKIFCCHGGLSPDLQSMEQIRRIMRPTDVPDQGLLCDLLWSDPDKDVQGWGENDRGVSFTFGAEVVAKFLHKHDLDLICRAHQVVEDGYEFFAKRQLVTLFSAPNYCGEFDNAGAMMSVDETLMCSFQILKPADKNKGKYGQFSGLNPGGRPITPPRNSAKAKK

With `COc1cnc(-c2ccccn2)nc1Sc1ccc(C)cc1` the IC50 [1] was 6.95 µM (active), the IC50 [2] was > 67 µM (not active) and the AC50 [3] was 5.03 µM (active).
With `Cc1ccc(N/N=C2/C(=O)Nn3c2nc(C)cc3=O)cc1` the IC50 [4] was 86.1 µM (active), the EC50 [5] was > 40 µM (inactive) and the IC50 [6] was > 40 µM (not active). For the same compound, the EC50 [7] was > 100 µM (active).
For `CCOC(=O)N1CCN(c2ccnc3cc(Cl)ccc23)CC1`, the IC50 [8] was 15.7 µM (not active) and the IC50 [9] was 18.9 µM (not active).
With `CN(c1ccc(C(=O)Nc2ccccc2Sc2ccccc2)cc1)S(C)(=O)=O` the CC50 [10] was > 40 µM (active).
